Measured values: patent publication US11926625B2, “HPK1 antagonists and uses thereof” (Nimbus Saturn, Inc., priority 2021, dated 2024)

Target: T1, HPK1 (Homo sapiens, UniProt Q92918)
T1 construct: purchased Invitrogen
Assay: HPK1 biochemical enzyme assay (microfluidic mobility shift, Caliper)
Settings: 1.5 nM HPK1 (Invitrogen), 1 mM ATP, 30 min preincubation, 60 min at RT, top concentration 3 μM; read-out: HPK1 1000UMATP caliper IC50
Procedure: Example 20. HPK1 Biochemical Enzyme Assay
HPK1 biochemical enzyme assay: HPK1 enzyme inhibition was measured using a microfluidic mobility shift assay. Reactions were performed in a 384-well plate, containing 1.5 nM HPK1 (Invitrogen), in assay buffer (Cama Biosciences; pH 7.4). Test compounds were titrated in ten point curves (top final assay concentration 3 μM), and preincubated with enzyme/substrate mix for 30 min prior to initiation of the reaction by addition of ATP (1 mM final concentration) and substrate (1 μM final concentration; Carna Biosciences) diluted in assay buffer supplemented by MgCl2 (final assay concentration of 5 mM). Following 60 min incubation at RT, the reaction was terminated by addition of 60 μl/well termination buffer (Carna Biosciences) and signal determination using a Caliper EZ Reader (Perkin Elmer, UK).

T1 sequence (Q92918 whole entry): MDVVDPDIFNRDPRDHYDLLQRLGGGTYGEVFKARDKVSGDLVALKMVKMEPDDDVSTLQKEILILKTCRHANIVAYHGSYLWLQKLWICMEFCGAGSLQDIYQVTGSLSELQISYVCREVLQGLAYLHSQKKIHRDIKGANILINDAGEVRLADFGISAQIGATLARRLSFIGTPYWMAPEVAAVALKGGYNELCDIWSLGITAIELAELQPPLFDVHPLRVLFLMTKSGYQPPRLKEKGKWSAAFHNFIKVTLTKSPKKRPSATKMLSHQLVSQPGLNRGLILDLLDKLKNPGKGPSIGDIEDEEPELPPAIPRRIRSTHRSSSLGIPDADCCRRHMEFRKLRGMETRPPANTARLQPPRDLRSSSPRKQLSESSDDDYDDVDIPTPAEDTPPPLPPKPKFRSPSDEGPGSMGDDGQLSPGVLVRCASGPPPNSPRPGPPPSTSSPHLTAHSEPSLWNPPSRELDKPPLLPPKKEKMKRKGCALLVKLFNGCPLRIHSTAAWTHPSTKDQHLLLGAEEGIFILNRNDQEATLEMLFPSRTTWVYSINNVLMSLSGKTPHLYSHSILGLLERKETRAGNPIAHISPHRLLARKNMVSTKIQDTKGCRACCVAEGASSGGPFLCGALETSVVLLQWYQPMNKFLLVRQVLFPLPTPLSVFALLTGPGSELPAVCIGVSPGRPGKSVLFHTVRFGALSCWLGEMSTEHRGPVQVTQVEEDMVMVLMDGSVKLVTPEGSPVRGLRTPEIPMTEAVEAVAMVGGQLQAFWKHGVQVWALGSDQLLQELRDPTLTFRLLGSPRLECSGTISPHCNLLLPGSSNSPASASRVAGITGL

SMILES | IC50
O=C1NCc2c(-c3ccncc3)ncc(Nc3ccc(N4CCC(O)CC4)cn3)c21 [Compound I-13, 7-[[5-(4-hydroxy-1-piperidyl)-2-pyridyl]amino]-4-(4-pyridyl)-2,3-dihydropyrrolo [3,4-c]pyridin-1-one] | 1000 to 5000 nM
CN1CCN(c2ccc(Nc3ccc(-c4ccnc(C5CCCCO5)c4)c4c3C(=O)NC4)nc2)CC1 (stereo not drawn) [Compound I-65, 7-((5-(4-methylpiperazin-1-yl)pyridin-2-yl)amino)-4-(2-(tetrahydro 2H-pyran-2-yl)pyridin-4-yl)isoindolin-1-one] | 1000 to 5000 nM
CN1CCN(c2ccc(Nc3ccc(-c4cc(N5CC6CCC(C5)O6)ncn4)c4c3C(=O)NC4)nc2)CC1 [Compound I-61, 4-(6-(8-oxa-3-azabicyclo [3.2.1]octan-3-yl)pyrimidin-4-yl)-7-((5-(4-methylpiperazin-1-yl)pyridin-2-yl)amino) isoindolin-1-one] | 1000 to 5000 nM
CN1CCN(c2ccc(Nc3cnc(-c4ccncc4F)c4c3C(=O)NC4)nc2)CC1 [Compound I-22, 4-(3-fluoro-4-pyridyl)-7-[[5-(4-methylpiperazin-1-yl)-2-pyridyl]amino]-2,3-dihydropyrrolo [3,4-c]pyridin-1-one] | 1000 to 5000 nM
CN1CCN(c2ccc(Nc3ccc(-c4ccc(F)c(C5CCOCC5)c4)c4c3C(=O)NC4)nc2)CC1 [Compound I-87, 4-(4-fluoro-3-(tetrahydro-2H-pyran-4-yl)phenyl)-7-((5-(4-methylpiperazin-1-yl)pyridin-2-yl)amino) isoindolin-1-one] | 1000 to 5000 nM
COc1cccc(-c2ncc(Nc3ccc(N4CCN(C)CC4)cn3)c3c2CNC3=O)c1OC [Compound I-19, 4-(2,3-dimethoxyphenyl)-7-[[5-(4-methylpiperazin-1-yl)-2-pyridyl]amino]-2,3-dihydropyrrolo [3,4-c]pyridin-1-one] | 1000 to 5000 nM
CN1CCN(c2ccc(Nc3cnc(-c4ccncc4)c4c3C(=O)NC4)nc2)CC1 [Compound I-15, 7-[[5-(4-methylpiperazin-1-yl)-2-pyridyl]amino]-4-(4-pyridyl)-2,3-dihydropyrrolo [3,4-c]pyridin-1-one] | 1000 to 5000 nM
O=C1NCc2c(-c3ccccc3)ncc(Nc3ccc(N4CCNCC4)cn3)c21 [Compound I-11, 4-phenyl-7-[(5-piperazin-1-yl-2-pyridyl)amino]-2,3-dihydropyrrolo [3,4-c]pyridin-1-one] | 1000 to 5000 nM
O=C1NCc2c(-c3ncco3)ncc(Nc3ccc(N4CCNCC4)cn3)c21 [Compound I-10, 4-oxazol-2-yl-7-[(5-piperazin-1-yl-2-pyridyl)amino]-2,3-dihydropyrrolo [3,4-c]pyridin-1-one] | 1000 to 5000 nM
O=C1NCc2c(-c3cn(-c4ccccc4)cn3)ccc(Nc3ccc(N4CCNCC4)cn3)c21 [Compound I-80, 4-(1-phenyl-1H-imidazol-4-yl)-7-((5-(piperazin-1-yl)pyridin-2-yl)amino) isoindolin-1-one] | 1000 to 5000 nM
O=C1NCc2c(C3CC3)ncc(Nc3ccc(N4CCNCC4)cn3)c21 [Compound I-12, 4-cyclopropyl-7-[(5-piperazin-1-yl-2-pyridyl)amino]-2,3-dihydropyrrolo [3,4-c]pyridin-1-one] | 1000 to 5000 nM
O=C1NCc2c(-n3ccnc3)ccc(Nc3ccc(N4CCNCC4)cn3)c21 [Compound I-81, 4-(1H-imidazol-1-yl)-7-((5-(piperazin-1-yl)pyridin-2-yl)amino) isoindolin-1-one] | 1000 to 5000 nM
CN1CCN(c2ccc(Nc3ccc(-c4ccnc(N5CCC6(CCOCC6)CC5)c4)c4c3C(=O)NC4)nc2)CC1 [Compound I-33, 7-[[5-(4-methylpiperazin-1-yl)-2-pyridyl]amino]-4-[2-(3-oxa-9-azaspiro[5. 5]undecan-9-yl)-4-pyridyl] isoindolin-1-one] | 1000 to 5000 nM
CCc1cnc(C)cc1-c1ncc(Nc2ccc(N3CCNCC3)cn2)c2c1CNC2=O [Compound I-21, 4-(5-ethyl-2-methyl-4-pyridyl)-7-[(5-piperazin-1-yl-2-pyridyl)amino]-2,3-dihydropyrrolo [3,4-c]pyridin-1-one] | 1000 to 5000 nM
O=C1NCc2c(-c3cccnc3)ncc(Nc3ccc(N4CCNCC4)cn3)c21 [Compound I-7, 7-[(5-piperazin-1-yl-2-pyridyl)amino]-4-(3-pyridyl)-2,3-dihydropyrrolo [3,4-c]pyridin-1-one] | 1000 to 5000 nM
NC(=O)c1ncc(Nc2ccc(N3CCNCC3)cn2)c2c1CNC2=O [Compound I-8, 1-oxo-7-[(5-piperazin-1-yl-2-pyridyl)amino]-2,3-dihydropyrrolo [3,4-c]pyridine-4-carboxamide] | 1000 to 5000 nM
CN1CCN(c2ccc(Nc3ccc(-c4ccnc(C5CCOCC5)n4)c4c3C(=O)NC4)nc2)CC1 [Compound I-62, 7-((5-(4-methylpiperazin-1-yl)pyridin-2-yl)amino)-4-(2-(tetrahydro-2H-pyran-4-yl)pyrimidin-4-yl)isoindolin-1-one] | 1000 to 5000 nM

The remaining lines, values ahead:

IC50 | SMILES
1000 to 5000 nM | Cn1cnc(-c2ccc(Nc3ccc(N4CCNCC4)cn3)c3c2CNC3=O)c1-c1ccccc1 [Compound I-77, 4-(1-methyl-5-phenyl-1H-imidazol-4-yl)-7-((5-(piperazin-1-yl)pyridin-2-yl)amino) isoindolin-1-one]
1000 to 5000 nM | CN1CCN(c2ccc(Nc3ccc(-c4ccncc4C4CCOCC4)c4c3C(=O)NC4)nc2)CC1 [Compound I-70, 7-((5-(4-methylpiperazin-1-yl)pyridin-2-yl)amino)-4-(3-(tetrahydro-2H-pyran-4-yl)pyridin-4-yl)isoindolin-1-one]
1000 to 5000 nM | CN1CCN(c2ccc(Nc3ccc(-c4ccnc(N5CC6CCC(C5)O6)c4)c4c3C(=O)NC4)nc2)CC1 [Compound I-41]
< 1000 nM | CN1CCN(c2ccc(Nc3ccc(-c4ccnc(C#CC5CCCCC5)c4)c4c3C(=O)NC4)nc2)CC1 [Compound I-63, 4-(2-(cyclohexylethynyl)pyridin-4-yl)-7-((5-(4-methylpiperazin-1-yl)pyridin-2-yl)amino) isoindolin-1-one]
< 1000 nM | CN1CCN(c2ccc(Nc3ccc(-c4ccnc(N5CCCCC5)c4)c4c3C(=O)NC4)nc2)CC1 [Compound I-34, 7-[[5-(4-methylpiperazin-1-yl)-2-pyridyl]amino]-4-[2-(1-piperidyl)-4-pyridyl] isoindolin-1-one]
< 1000 nM | CN1CCN(c2ccc(Nc3ccc(-c4ccnc(N5CCOCC5)c4)c4c3C(=O)NC4)nc2)CC1 [Compound I-32, 7-[[5-(4-methylpiperazin-1-yl)-2-pyridyl]amino]-4-(2-morpholino-4-pyridyl) isoindolin-1-one]
< 1000 nM | CN1CCN(c2ccc(Nc3ccc(-c4ccccn4)c4c3C(=O)NC4)nc2)CC1 [Compound I-31, 7-[[5-(4-methylpiperazin-1-yl)-2-pyridyl]amino]-4-(2-pyridyl) isoindolin-1-one]
< 1000 nM | CN1CCN(c2ccc(Nc3ccc(-c4ccccc4)c4c3C(=O)NC4)nc2)CC1 [Compound I-29, 7-[[5-(4-methylpiperazin-1-yl)-2-pyridyl]amino]-4-phenyl-isoindolin-1-one]
< 1000 nM | O=C1NCc2c(-c3ccncc3)ccc(Nc3ccc(N4CCNCC4)cn3)c21 [Compound I-27, 7-[(5-piperazin-1-yl-2-pyridyl)amino]-4-(4-pyridyl) isoindolin-1-one]
< 1000 nM | CN1CCN(c2ccc(Nc3ccc(-c4ccnc(C#C[C@H]5CCCO5)c4)c4c3C(=O)NC4)nc2)CC1 [Compound I-85]
< 1000 nM | CN1CCN(c2ccc(Nc3ccc(-c4ccnc(C5(C#N)CCOCC5)c4)c4c3C(=O)NC4)nc2)CC1 [Compound I-46, 4-[4-[7-[[5-(4-methylpiperazin-1-yl)-2-pyridyl]amino]-1-oxo-isoindolin-4-yl]-2-pyridyl] tetrahydropyran-4-carbonitrile]
< 1000 nM | CN1CCN(c2ccc(Nc3ccc(-c4cncn4C)c4c3C(=O)NC4)nc2)CC1 [Compound I-54, 4-(3-methylimidazol-4-yl)-7-[[5-(4-methylpiperazin-1-yl)-2-pyridyl]amino] isoindolin-1-one]
< 1000 nM | CN1CCN(c2ccc(Nc3ccc(-c4cccnc4)c4c3C(=O)NC4)nc2)CC1 [Compound I-30, 7-[[5-(4-methylpiperazin-1-yl)-2-pyridyl]amino]-4-(3-pyridyl) isoindolin-1-one]
< 1000 nM | CN1CCN(c2ccc(Nc3ccc(-c4ccncc4)c4c3C(=O)NC4)nc2)CC1 [Compound I-25, 7-[[5-(4-methylpiperazin-1-yl)-2-pyridyl]amino]-4-(4-pyridyl) isoindolin-1-one]
< 1000 nM | CN1CCN(c2ccc(Nc3ccc(-c4ccnc(C#CC5CCCO5)c4)c4c3C(=O)NC4)nc2)CC1 (stereo not drawn) [Compound I-68]
< 1000 nM | CN1CCN(c2ccc(Nc3ccc(-c4cc(C5CCOCC5)ncn4)c4c3C(=O)NC4)nc2)CC1 [Compound I-69]
< 1000 nM | O=C1NCc2c(-c3cncn3-c3ccccc3)ccc(Nc3ccc(N4CCNCC4)cn3)c21 [Compound I-75, 4-(1-phenyl-1H-imidazol-5-yl)-7-((5-(piperazin-1-yl)pyridin-2-yl)amino) isoindolin-1-one]
< 1000 nM | CN1CCN(c2ccc(Nc3ccc(-c4ccnc(N5CCC(C#N)CC5)c4)c4c3C(=O)NC4)nc2)CC1 [Compound I-37, 1-[4-[7-[[5-(4-methylpiperazin-1-yl)-2-pyridyl]amino]-1-oxo-isoindolin-4-yl]-2-pyridyl] piperidine-4-carbonitrile]
< 1000 nM | Cc1ncc(-c2ccc(Nc3ccc(N4CCNCC4)cn3)c3c2CNC3=O)n1C [Compound I-72, 4-(1,2-dimethyl-1H-imidazol-5-yl)-7-((5-(piperazin-1-yl)pyridin-2-yl)amino) isoindolin-1-one]
